The source of these data is patent US6828106B2, “Methods and compositions using coiled binding partners” (Cyclacel Limited, priority 1999, dated 2004).

Each structure is given as a SMILES string.

Test [1] has as its target T1, TEV protease (Tobacco etch virus, UniProt P04517).
T1 construct: Proteolytic cleavage was initiated by the addition of TEV protease (20U, Gibco Life Technologies); histidine tag; purchased Gibco Life Technologies
Kind of test: TEV protease FRET assay with homodimer-forming reporter peptide. Type of test: biochemical. Particulars: 0.05-100 mM iodacetamide added prior to TEV protease; 6 μM reporter peptide, 30° C.; FIG. 9; read-out: IC50 value (TEV protease inhibitor iodacetamide) as determined by FRET analysis. The method, then:
(§1) TEV protease activity and inhibition of TEV protease activity was determined by using a peptide capable of forming a homodimer, wherein homodimer formation is decreased following TEV protease cleavage of the peptide, according to the following method.
For FRET analysis the reporter peptide (KGR MRCLEDR VENLYSQ SYHLENE VARLRRL VGELAAK) (SEQ ID NO: 32) was labeled with fluorescein or rhodamine. The labeled peptides were incubated at a total peptide concentration of 6 μM (6:1 ratio, R:F) in 50 mM Tris pH 8, and 0.5 mM EDTA, and 1 mM DTT at 30° C. for 15 minutes in a total volume of 100 μl. Proteolytic cleavage was initiated by the addition of TEV protease (20U, Gibco Life Technologies), and monitored during the time course of the reaction by measuring the emission of fluorescein (excitation 485 nm, emission 520 nm) over time. Initial rates of change of fluorescein emission were determined for the linear portion of the reaction.
(§2) The activity of the TEV protease inhibitor iodacetamide was determined by FRET or FP assays performed as described above in the absence of iodacetamide or in the presence of 0.05-100 mM iodacetamide added prior to the addition of TEV protease. The results of these experiments are presented in FIG. 9 (FRET assay) and FIG. 11 (FP assay).

The target in test [2] is T1, TEV protease. The test can be described thus: TEV protease FP assay with homodimer-forming reporter peptide. The format is biochemical. Particulars: 0.05-100 mM iodacetamide added prior to TEV protease; 6 μM reporter peptide, 30° C.; read-out: IC50 value (TEV protease inhibitor iodacetamide) as determined by FP analysis. On the procedure: as §1
For FP analysis the reporter peptide (sequence recited above) was labeled with fluorescein or with biotin. The labeled peptides were incubated at a total peptide concentration of 6 μM (6:1 ratio, biotin:F) in 50 mM Tris, pH 8, 0.5 mM EDTA, 0.1 mg/ml BSA and 1 mM DTT at 30° C. for 5 minutes in a total volume of 100 μl. Proteolytic cleavage was initiated by the addition of TEV protease (20U), and monitored during the reaction time course by measuring the polarization of fluorescein (excitation 485 nm, emission 520 nm) over time. Initial rates of change of fluorescein polarization were determined for the linear portion of the reaction.
as §2

T1 sequence (P04517 2038-2279): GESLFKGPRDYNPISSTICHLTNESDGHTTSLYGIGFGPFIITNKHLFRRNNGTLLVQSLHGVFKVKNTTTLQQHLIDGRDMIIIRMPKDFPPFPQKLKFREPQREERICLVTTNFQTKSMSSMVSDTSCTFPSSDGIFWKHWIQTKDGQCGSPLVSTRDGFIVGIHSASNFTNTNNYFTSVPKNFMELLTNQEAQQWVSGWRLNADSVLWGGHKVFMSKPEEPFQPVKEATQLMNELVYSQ

In the case of `NC(=O)CI` [iodacetamide, reference compound], the IC50 was 885 µM in test [1] and 1000 µM in test [2].
